Molecules are shown by their SMILES. Counter-ions that a name gives are not always drawn.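 Values below derive from 48-hour exposures of cells grown in 96-well plates, with endpoints linearly interpolated between the two concentrations bracketing the appropriate inhibition level. GI50: concentration for 50% inhibition of growth.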 Activity calls are given as the source filed them. Rule as the data show it: active = GI50 up to about 1.1 µM and inactive = higher. Where only a bound is given, the exact number is not on record here.

Among the test systems are SK-MEL-2; SW-620; K562; NCI-H522; CAKI-1; HOP-62; RPMI-8226; T47D; MOLT-4; PC-3; A498; RXF 393; M14; ACHN; SK-OV-3; SN12C; SNB-19; MCF7; Malme-3M.
What all share (assay): NCI-60 cell line screen, 48 h

For `Cc1ccc(Cc2n[nH]c(=O)n2/N=C\CC/C=N\n2c(Cc3ccc(C)cc3)n[nH]c2=O)cc1`, the GI50 with SK-MEL-2 was 28 µM (inactive); in the assay on SW-620 it was 43 µM (inactive); with K562, 96.8 µM (inactive); in the assay on NCI-H522, > 100 µM (inactive); in the assay on CAKI-1 it was > 100 µM (inactive); with HOP-62, 6.37 µM (inactive). The GI50 is 57.9 µM (inactive) in the assay with RPMI-8226; 38.6 µM (inactive) in the assay with T47D; 19.1 µM (inactive) in the assay with MOLT-4; 31.3 µM (inactive) in the assay on PC-3; 90.4 µM (inactive) in the assay with A498; 20.9 µM (inactive) in the assay on RXF 393. Also, the GI50 in the assay with M14 was 27.3 µM (inactive); in the assay on ACHN it was 47.1 µM (inactive); with SK-OV-3 it was 36.6 µM (inactive); with SN12C, 44.7 µM (inactive); in the assay on SNB-19 it was 39.6 µM (inactive); with MCF7, 23.9 µM (inactive). Further, the GI50 in the assay on Malme-3M was 33.2 µM (inactive).

Consider `COc1cc(N(CCC#N)CCC#N)ccc1C(/N=N/c1cccc(C)c1)=N\NC(=O)c1ccc(C)cc1`, for which the GI50 was > 100 µM (inactive) in the assay on SK-MEL-2; > 100 µM (inactive) in the assay with SW-620; > 100 µM (inactive) in the assay on K562; 80.5 µM (inactive) in the assay on NCI-H522; > 100 µM (inactive) in the assay on CAKI-1; > 100 µM (inactive) in the assay on HOP-62. The GI50 in the assay on RPMI-8226 was 35.7 µM (inactive); in the assay on T47D, 66.2 µM (inactive); in the assay with MOLT-4, 7.91 µM (inactive); in the assay with PC-3, > 100 µM (inactive); with A498 it was 4.78 µM (inactive); in the assay on RXF 393, 73.8 µM (inactive). Further, the GI50 in the assay on M14 is > 100 µM (inactive); in the assay with ACHN, 21.8 µM (inactive); in the assay with SK-OV-3 it was > 100 µM (inactive); in the assay with SN12C, > 100 µM (inactive); with SNB-19, > 100 µM (inactive); in the assay on MCF7, 29.1 µM (inactive). For the same molecule, the GI50 with Malme-3M is 43.5 µM (inactive).

With `CC(=O)NC1C(OCc2ccccc2)OC(CO)C(O)C1OCC(=O)N[C@@H](C)C(=O)N[C@H](CCC(=O)NCCCNc1c2ccccc2nc2cccc([N+](=O)[O-])c12)C(N)=O` (stereo partly drawn), the GI50 is 0.0404 µM (active) with SK-MEL-2; 0.0172 µM (active) in the assay on SW-620; 0.0229 µM (active) in the assay on K562; < 0.0111 µM (active) in the assay with NCI-H522; 0.0338 µM (active) in the assay on CAKI-1; 0.08 µM (active) in the assay on HOP-62. For the same molecule, the GI50 in the assay with RPMI-8226 is 0.0411 µM (active); in the assay with T47D, 0.047 µM (active); in the assay on MOLT-4, 0.0269 µM (active); with PC-3 it was 0.0368 µM (active); in the assay with A498, 0.0547 µM (active); in the assay with RXF 393 it was 0.0352 µM (active). In addition, the GI50 in the assay on M14 was 0.0341 µM (active); with ACHN, 0.0182 µM (active); with SK-OV-3, 0.334 µM (active); with SN12C it was 0.0397 µM (active); with SNB-19, 0.16 µM (active); in the assay on MCF7, 0.018 µM (active). Besides, the GI50 in the assay on Malme-3M is 0.0292 µM (active).

On to `CCN(CC)CCNc1ccc(C)c2sc3ccccc3c(=O)c12` [LUCANTHONE HYDROCHLORIDE], for which the GI50 is 3.83 µM (inactive) in the assay with SK-MEL-2; 1.76 µM (inactive) in the assay on SW-620; 1.97 µM (inactive) with K562; 2.31 µM (inactive) in the assay on NCI-H522; 2.85 µM (inactive) in the assay with CAKI-1; 6.5 µM (inactive) with HOP-62. Further, the GI50 is 1.9 µM (inactive) in the assay on RPMI-8226; 7.08 µM (inactive) with T47D; 1.27 µM (inactive) with MOLT-4; 2.03 µM (inactive) with PC-3; 2.23 µM (inactive) in the assay on A498; 1.98 µM (inactive) with RXF 393. The GI50 in the assay on M14 was 1.75 µM (inactive); in the assay on ACHN, 3.54 µM (inactive); in the assay on SK-OV-3, 6.71 µM (inactive); with SN12C, 2.67 µM (inactive); with SNB-19, 2.54 µM (inactive); with MCF7 it was 2.39 µM (inactive). Besides, the GI50 in the assay with Malme-3M is 3.84 µM (inactive).

For the molecule `CC(C)c1ccc(/C=C2\N=C(c3ccc([N+](=O)[O-])cc3)OC2=O)cc1`, the GI50 with SK-MEL-2, in the assay with SW-620, with K562, in the assay with NCI-H522, with CAKI-1 and in the assay with HOP-62 was > 100 µM (inactive) throughout. The GI50 in the assay with RPMI-8226 is > 100 µM (inactive); in the assay on T47D, > 100 µM (inactive); with MOLT-4, > 100 µM (inactive); in the assay on PC-3, > 100 µM (inactive); with A498 it was > 100 µM (inactive); in the assay on RXF 393, 14.9 µM (inactive). The GI50 in the assay with M14, in the assay on ACHN, in the assay with SK-OV-3, in the assay with SN12C, in the assay with SNB-19 and in the assay on MCF7 was > 100 µM (inactive) in each case. For the same molecule, the GI50 in the assay with Malme-3M is 60.3 µM (inactive).

On to `OC(c1ccccc1)c1c(-c2ccccc2)[nH]c(-c2ccccc2)c1C(O)c1ccccc1` (stereo not drawn), for which the GI50 with SK-MEL-2 was 1.95 µM (inactive); in the assay with SW-620 it was 4.9 µM (inactive); in the assay with K562 it was 2.03 µM (inactive); in the assay with NCI-H522, 3.27 µM (inactive); with CAKI-1 it was 2.55 µM (inactive); with HOP-62, 4.58 µM (inactive). In addition, the GI50 was 2.09 µM (inactive) in the assay with RPMI-8226; 4.86 µM (inactive) in the assay with T47D; 2.94 µM (inactive) with MOLT-4; 2.54 µM (inactive) with PC-3; 3.79 µM (inactive) in the assay on A498; 2.88 µM (inactive) with RXF 393. The GI50 in the assay with M14 was 3.66 µM (inactive); in the assay with ACHN, 3.17 µM (inactive); in the assay on SK-OV-3, 4.25 µM (inactive); with SN12C, 2.38 µM (inactive); in the assay with SNB-19, 3.56 µM (inactive); with MCF7, 3.78 µM (inactive). In the assay on Malme-3M, the GI50 was 2.59 µM (inactive).

With `CC(=O)OC12CC(C)C3(O)C4C=C(C)C(=O)[C@@]4(O)CC(CO)=C[C@H]3C1C2(C)C` (stereo partly drawn), the GI50 in the assay on SK-MEL-2 was > 10 µM (inactive); in the assay on SW-620 it was 5.73 µM (inactive); in the assay with K562 it was 0.494 µM (active); with NCI-H522, > 10 µM (inactive); in the assay on CAKI-1, 4.7 µM (inactive); with HOP-62, > 100 µM (inactive). The GI50 in the assay with RPMI-8226 is > 10 µM (inactive); in the assay on T47D, > 100 µM (inactive); in the assay on MOLT-4 it was > 1000 µM (inactive); with PC-3 it was > 1000 µM (inactive); in the assay on A498 it was 0.41 µM (active); with RXF 393, > 100 µM (inactive). Besides, the GI50 in the assay on M14 was > 10 µM (inactive); in the assay on ACHN it was > 10 µM (inactive); in the assay with SK-OV-3, 794 µM (inactive); in the assay with SN12C, > 100 µM (inactive); with SNB-19, > 10 µM (inactive); in the assay with MCF7, > 10 µM (inactive). In addition, the GI50 with Malme-3M is > 10 µM (inactive).
